What was measured:
[1] = target: T1, Lp-PLA2 enzyme in human plasma (Homo sapiens, UniProt Q13093); test: Human plasma Lp-PLA2 assay (Thio-PAF assay); format: biochemical; conditions: mixed human plasma; 2-thio-PAF substrate with CPM; 30 min pre-incubation; fluorescence ex 380/em 485; read-out: Thio-PAF (pIC50) (converted)
T1 construct: from tissue; host or cells: pooled (mixed) human plasma
T1 sequence (Q13093 22-441): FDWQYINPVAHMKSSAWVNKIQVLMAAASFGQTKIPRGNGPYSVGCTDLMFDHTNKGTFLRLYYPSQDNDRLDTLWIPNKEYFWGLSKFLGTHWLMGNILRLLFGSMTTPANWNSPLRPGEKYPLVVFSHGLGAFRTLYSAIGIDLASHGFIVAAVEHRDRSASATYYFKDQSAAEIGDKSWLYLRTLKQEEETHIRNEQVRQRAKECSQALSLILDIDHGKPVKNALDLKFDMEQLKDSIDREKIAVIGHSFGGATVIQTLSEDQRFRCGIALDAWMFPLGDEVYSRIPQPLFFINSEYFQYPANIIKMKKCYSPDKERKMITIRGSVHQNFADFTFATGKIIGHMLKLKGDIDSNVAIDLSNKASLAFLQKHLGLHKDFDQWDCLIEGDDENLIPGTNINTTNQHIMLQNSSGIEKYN
Method: (2) Human Plasma Lp-PLA2 Assay (Also Known as Thio-PAF Assay) The human plasma assay was conducted using the sulphatide analog of PAF (phosphatidylcholine), which is hydrolyzed to produce phospholipids containing free sulfhydryl groups, subjected to Michael addition with CPM to generate fluorescence-enhancing maleimide. Continuous quantitative analysis of thiol could be conducted by detecting the fluorescence intensity. This assay can be used to detect the inhibitory activity of the Lp-PLA2 inhibitor on the Lp-PLA2 enzyme in human plasma. Assay Method: The compound to be tested (as shown in Table 2) was mixed with a DMSO solution in a volume ratio of (1:3), and diluted to prepare a source plate of a 384-well microplate. Then 0.01 μl of the compound was transferred via an ECHO liquid dispenser from the source plate to a 384-well Greiner 784076 low-volume plate, and 8 μl of pre-aliquoted and frozen mixed human plasma was added. The plate was centrifuged at 500 rpm for 10 seconds. After a 30 min pre-incubation, 2 μl of a substrate solution, and containing 2.5 mM 2-thio-PAF (a solution in ethanol), 32 μM CPM (a solution in DMSO) and a buffer of 3.2 mM N-ethylmaleimide (NEM) (a buffer solution consisting of 50 mM HEPES, pH 7.4, 150 mM NaCl, 1 mM CHAPS) was added by a BRAVO liquid handling station to a 384-well Greiner 784076 low-volume plate. After 2 min, the reaction was quenched with 5 μl of 5% trifluoroacetic acid. After the plate was incubated at room temperature for 40 min in a dark place, the fluorescence intensity was read at ex 380/em 485 with an Envision microplate reader, and the XL fitting model in Excel was used to perform the curve analysis and QC analysis to calculate pIC50.

[2] = target: T2, Recombinant human Lp-PLA2 enzyme (Homo sapiens, UniProt Q13093); test: Recombinant human Lp-PLA2 (rhLp-PLA2) assay (PED6 assay); format: biochemical; conditions: PED6 substrate; recombinant human Lp-PLA2 at 4 nM or 110 pM; 30 min pre-incubation; fluorescence ex 480/em 540; read-out: rhLp-PLA2 (pIC50) (converted)
T2 sequence (Q13093 22-441): T1 sequence (Q13093 22-441)
Source text: (1) Recombinant Human Lp-PLA2 (rhLp-PLA2) Assay (also Known as PED6 Assay)
PED6 is a fluorescently labeled phospholipid that can be purchased directly from Invitogene or Molecular Probes. There is a fluorescence-quenching p-nitrophenyl group on the Sn3 position, and a Bodipy fluorescein (FL) group on the sn2 position. Once it is cleaved by the Lp-PLA2 enzyme, the FL group is released, resulting in enhanced fluorescence.
Assay method: The compound to be tested (as shown in Table 1) was mixed with DMSO solution at a volume ratio of 1:3, diluted to prepare a source plate of a 384-well microplate. Then 0.01 μl of the compound was transferred via an ECHO liquid dispenser from the source plate to a 384-well Greiner 784076 plate, and 5 microliters of a buffer composed of 50 mM HEPES, pH 7.4, 150 mM NaCl, 1 mM CHAPS (the buffer solution contains Recombinant human Lp-PLA2 enzyme at a concentration of 4 nM or 110 pM) was added to each well on the plate. The plate was centrifuged at 500 rpm for 10 seconds. After 30 minutes of pre-incubation, 5 microliters of the above buffer solution was added to a 384-well Greiner784076 plate, and the plate was centrifuged at 500 rpm for 10 seconds.

| SMILES | IC50 [1] | IC50 [2] |
| --- | --- | --- |
| O=c1nc(OCc2cc(F)c(F)c(F)c2)cc2n1CC[C@H]1COCCN21 [Compound 13] | 79.4 nM | 6.31 nM |
| O=c1nc(OCc2cc(F)c(Oc3ccc(C(F)(F)F)nc3)c(F)c2)cc2n1CC[C@@H]1COCCN21 [Compound 6] | 7.94 nM | 0.1 nM |
| O=c1nc(OCc2cc(F)c(Oc3ccnc(C(F)(F)F)c3)c(F)c2)cc2n1CC[C@H]1COCCN21 [Compound 15] | 12.6 nM | 0.126 nM |
| O=c1nc(OCc2cccc(F)c2F)cc2n1CC[C@@H]1COCCN21 [Compound 2] | 251 nM | 25.1 nM |
| O=c1nc(OCc2cc(F)c(Oc3cccc(C(F)(F)F)c3)c(F)c2)cc2n1CC[C@@H]1COCCN21 [Compound 9] | 6.31 nM | 0.0631 nM |
| O=c1nc(OCc2cc(F)c(Oc3ccc(C(F)(F)F)cc3)c(F)c2)cc2n1CC[C@H]1COCCN21 [Compound 20] | 12.6 nM | 0.1 nM |
| O=c1nc(OCc2cc(F)c(Oc3ccc(C(F)(F)F)cc3)c(F)c2)cc2n1CC[C@@H]1COCCN21 [Compound 11] | 7.94 nM | 0.0794 nM |
| Cc1ccc(Oc2c(F)cc(COc3cc4n(c(=O)n3)CC[C@@H]3COCCN43)cc2F)cn1 [Compound 7] | 7.94 nM | 0.0631 nM |
| O=c1nc(OCc2cc(F)c(Oc3ccc(C(F)(F)F)c(Cl)c3)c(F)c2)cc2n1CC[C@@H]1COCCN21 [Compound 12] | 6.31 nM | 0.0501 nM |
| O=c1nc(OCc2cc(F)c(Oc3ccnc(C(F)(F)F)c3)c(F)c2)cc2n1CC[C@@H]1COCCN21 [Compound 4] | 6.31 nM | 0.0794 nM |
| Cc1ccc(Oc2c(F)cc(COc3cc4n(c(=O)n3)CC[C@H]3COCCN43)cc2F)cn1 [Compound 18] | 10 nM | 0.1 nM |
| O=c1nc(OCc2cc(F)c(F)cc2F)cc2n1CC[C@@H]1COCCN21 [Compound 3] | 316 nM | 31.6 nM |
| Cc1ncc(Oc2c(F)cc(COc3cc4n(c(=O)n3)CC[C@@H]3COCCN43)cc2F)cn1 [Compound 8] | 15.8 nM | 0.316 nM |
| Cc1cc(Oc2c(F)cc(COc3cc4n(c(=O)n3)CC[C@@H]3COCCN43)cc2F)ccn1 [Compound 5] | 3.16 nM | 0.0631 nM |
| O=c1nc(OCc2cc(F)c(F)c(F)c2)cc2n1CC[C@@H]1COCCN21 [Compound 1] | 63.1 nM | 3.98 nM |
| O=c1nc(OCc2cc(F)c(Oc3ccc(C(F)(F)F)nc3)c(F)c2)cc2n1CC[C@H]1COCCN21 [Compound 17] | 12.6 nM | 0.126 nM |
| O=c1nc(OCc2cc(F)c(Oc3cccc(C(F)(F)F)c3)c(F)c2)cc2n1CC[C@H]1COCCN21 [Compound 19] | 7.94 nM | 0.0794 nM |
| O=c1nc(OCc2cccc(F)c2F)cc2n1CC[C@H]1COCCN21 [Compound 14] | 316 nM | 31.6 nM |
| Cc1cc(Oc2c(F)cc(COc3cc4n(c(=O)n3)CC[C@H]3COCCN43)cc2F)ccn1 [Compound 16] | 7.94 nM | 0.0794 nM |
| O=c1nc(OCc2cc(F)c(Oc3cccc(OC(F)(F)F)c3)c(F)c2)cc2n1CC[C@@H]1COCCN21 [Compound 10] | 10 nM | 0.0794 nM |
